From PubChem BioAssay AID328 (DTP/NCI, 2004)
“And” between values parts separate entries of the source, which are not always exact repeats. Identical values can stand only once. Inconclusive results and toxic doses are left out. How the source made its calls: active means survival T/C of 150% or more; inactive means T/C below 125% in these data.

Test system: BDF1 mice, P388 leukemia ip, median survival T/C
Experiment: NCI In Vivo Anticancer Drug Screen. Data for tumor model P388 Leukemia (intraperitoneal) in B6D2F1 (BDF1) mice
Conditions: endpoint: median survival time, higher = longer survival
How it was run: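 Each value expresses how treatment altered survival: treated-mouse outcome over vehicle-mouse outcome, both groups bearing the transplanted tumour.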

[1] = dose: 25.0 mg/kg/injection, schedule: Q01DX009 (ip), vehicle: Klucel (hydroxypropylcellulose) (HPC)
[2] = dose: 100.0 mg/kg/injection, schedule: Q01DX009 (ip), vehicle: Klucel (hydroxypropylcellulose) (HPC)
[3] = dose: 100.0 mg/kg/injection, schedule: Q04DX003 (ip), vehicle: Klucel (hydroxypropylcellulose) (HPC)
[4] = dose: 200.0 mg/kg/injection, schedule: Q04DX003 (ip), vehicle: Klucel (hydroxypropylcellulose) (HPC)
[5] = dose: 400.0 mg/kg/injection, schedule: Q04DX003 (ip), vehicle: Klucel (hydroxypropylcellulose) (HPC)
[6] = dose: 25.0 mg/kg/injection, schedule: Q01DX009 (ip), vehicle: saline with Tween-80
[7] = dose: 50.0 mg/kg/injection, schedule: Q01DX009 (ip), vehicle: saline with Tween-80
[8] = dose: 100.0 mg/kg/injection, schedule: Q01DX009 (ip), vehicle: saline with Tween-80
[9] = dose: 100.0 mg/kg/injection, schedule: Q04DX003 (ip), vehicle: saline with Tween-80
[10] = dose: 200.0 mg/kg/injection, schedule: Q01DX009 (ip), vehicle: saline with Tween-80
[11] = dose: 200.0 mg/kg/injection, schedule: Q04DX003 (ip), vehicle: saline with Tween-80
[12] = dose: 12.5 mg/kg/injection, schedule: Q01DX009 (ip), vehicle: saline
[13] = dose: 12.5 mg/kg/injection, schedule: Q04DX003 (ip), vehicle: saline
[14] = dose: 25.0 mg/kg/injection, schedule: Q01DX009 (ip), vehicle: saline
[15] = dose: 50.0 mg/kg/injection, schedule: Q01DX009 (ip), vehicle: saline
[16] = dose: 100.0 mg/kg/injection, schedule: Q01DX009 (ip), vehicle: saline
[17] = dose: 50.0 mg/kg/injection, schedule: Q04DX003 (ip), vehicle: Klucel (hydroxypropylcellulose) (HPC)
[18] = dose: 400.0 mg/kg/injection, schedule: Q01DX009 (ip), vehicle: saline

Measured: T/C

BrCc1ccc2c3c(ccc(CBr)c13)CC2
active: dose: 17.0 mg/kg/injection, schedule: Q04DX003 (ip), vehicle: Klucel (hydroxypropylcellulose) (HPC) 154 % of control | [3] 150 % of control | [4] 154 % of control
inactive: dose: 0.92 mg/kg/injection, schedule: Q04DX003 (ip), vehicle: saline 113 % of control | dose: 3.1 mg/kg/injection, schedule: Q04DX003 (ip), vehicle: saline 120 % of control | [1] 118 % of control | dose: 75.0 mg/kg/injection, schedule: Q01DX009 (ip), vehicle: Klucel (hydroxypropylcellulose) (HPC) 118 % of control | [2] 95 % of control | dose: 300.0 mg/kg/injection, schedule: Q04DX003 (ip), vehicle: Klucel (hydroxypropylcellulose) (HPC) 87 % of control and 100 % of control | dose: 300.0 mg/kg/injection, schedule: Q04DX003 (ip), vehicle: saline 118 % of control | [5] 122 % of control

c1ccc(Nc2n[n+](-c3ccccc3)no2)cc1
inactive: [6] 105 % of control | [7] 101 % of control | [8] 101 % of control and 104 % of control | [9] 107 % of control | [10] 88 % of control | [11] 106 % of control | dose: 400.0 mg/kg/injection, schedule: Q04DX003 (ip), vehicle: saline with Tween-80 102 % of control

C[n+]1cccc2ccccc21
inactive: [12] 95 % of control | [13] 104 % of control | [14] 100 % of control and 105 % of control | dose: 25.0 mg/kg/injection, schedule: Q04DX003 (ip), vehicle: saline 104 % of control | [15] 100 % of control and 110 % of control | dose: 50.0 mg/kg/injection, schedule: Q04DX003 (ip), vehicle: saline 109 % of control | [16] 109 % of control

CCCCN(CCCC)CCCNC(=O)OCC
inactive: [1] 100 % of control | dose: 25.0 mg/kg/injection, schedule: Q04DX003 (ip), vehicle: Klucel (hydroxypropylcellulose) (HPC) 100 % of control | dose: 50.0 mg/kg/injection, schedule: Q01DX009 (ip), vehicle: Klucel (hydroxypropylcellulose) (HPC) 110 % of control | [17] 104 % of control | [2] 115 % of control | [3] 109 % of control

CCOC(=O)c1cccc2cccc(C(=O)OCC)c12
inactive: [6] 106 % of control | [7] 92 % of control | [8] 114 % of control | [10] 100 % of control

C/C=C(/C)C(=O)O[C@H]1CCN2CC=C(COC(=O)[C@@](O)([C@H](C)OC)C(C)(C)O)[C@H]12
inactive: dose: 12.5 mg/kg/injection, schedule: Q01DX010 (ip), vehicle: saline 95 % of control | dose: 25.0 mg/kg/injection, schedule: Q01DX010 (ip), vehicle: saline 100 % of control

Cc1ccc(C(=O)N=[N+]=[N-])o1
inactive: [7] 108 % of control

O=S1(=O)N2CN3CN(C2)CN1C3
inactive: dose: 12.5 mg/kg/injection, schedule: Q04DX003 (ip), vehicle: Klucel (hydroxypropylcellulose) (HPC) 121 % of control | [17] 105 % of control

C=CCOP1(=O)OCC2OC(n3cnc4c(N)ncnc43)C(O)C2O1 (stereo not drawn)
inactive: [16] 88 % of control | dose: 200.0 mg/kg/injection, schedule: Q01DX009 (ip), vehicle: saline 100 % of control | [18] 88 % of control

CCCCCCCCCCCCOP(N)(=O)OCCCCCCCCCCCC
inactive: dose: 10.0 mg/kg/injection, schedule: Q01DX009 (ip), vehicle: Klucel (hydroxypropylcellulose) (HPC) 103 % of control | dose: 20.0 mg/kg/injection, schedule: Q01DX009 (ip), vehicle: Klucel (hydroxypropylcellulose) (HPC) 106 % of control | dose: 40.0 mg/kg/injection, schedule: Q01DX009 (ip), vehicle: Klucel (hydroxypropylcellulose) (HPC) 106 % of control | [7] 109 % of control | [8] 113 % of control | [3] 105 % of control | [9] 109 % of control | [4] 97 % of control | [11] 109 % of control | [5] 121 % of control

CCOP(=S)(OCC)Oc1cnn(C)c(=S)c1Cl
inactive: dose: 50.0 mg/kg/injection, schedule: Q01DX005 (ip), vehicle: saline with Tween-80 98 % of control | dose: 100.0 mg/kg/injection, schedule: Q01DX005 (ip), vehicle: saline with Tween-80 101 % of control | dose: 200.0 mg/kg/injection, schedule: Q01DX005 (ip), vehicle: saline with Tween-80 108 % of control

CC1=C(C(=O)OCc2ccccc2)C(c2ccc(Cl)cc2)C(C(=O)OCc2ccccc2)=C(C)N1
inactive: dose: 12.5 mg/kg/injection, schedule: Q01DX009 (ip), vehicle: other 100 % of control | dose: 25.0 mg/kg/injection, schedule: Q01DX009 (ip), vehicle: other 94 % of control | dose: 50.0 mg/kg/injection, schedule: Q01DX009 (ip), vehicle: other 90 % of control | dose: 100.0 mg/kg/injection, schedule: Q01DX009 (ip), vehicle: other 89 % of control | dose: 200.0 mg/kg/injection, schedule: Q01DX009 (ip), vehicle: other 90 % of control

CS(=O)(=O)OCCN1CCC2(CC1)SSC1(CCN(CCOS(C)(=O)=O)CC1)S2
inactive: dose: 3.12 mg/kg/injection, schedule: Q01DX009 (ip), vehicle: saline 95 % of control and 96 % of control | dose: 6.25 mg/kg/injection, schedule: Q01DX009 (ip), vehicle: saline 115 % of control | dose: 7.5 mg/kg/injection, schedule: Q04DX003 (ip), vehicle: saline 122 % of control | [12] 109 % of control and 115 % of control | [13] 122 % of control
active: dose: 10.0 mg/kg/injection, schedule: Q01DX009 (ip), vehicle: saline 154 % of control

Nc1ccccc1SC1CC(=O)N(c2cccc3ccccc23)C1=O (stereo not drawn)
inactive: [2] 118 % of control | [3] 104 % of control | dose: 200.0 mg/kg/injection, schedule: Q01DX009 (ip), vehicle: Klucel (hydroxypropylcellulose) (HPC) 118 % of control | [4] 100 % of control | dose: 400.0 mg/kg/injection, schedule: Q01DX009 (ip), vehicle: Klucel (hydroxypropylcellulose) (HPC) 100 % of control | [5] 90 % of control

NC(=S)N/N=C\c1ncnc2ccccc12
active: dose: 8.0 mg/kg/injection, schedule: Q01DX009 (ip), vehicle: saline with Tween-80 150 % of control | dose: 12.0 mg/kg/injection, schedule: Q01DX009 (ip), vehicle: saline with Tween-80 150 % of control | dose: 18.0 mg/kg/injection, schedule: Q01DX009 (ip), vehicle: saline with Tween-80 150 % of control

C=CC(=O)NC(Cc1ccccc1)C(=O)O (stereo not drawn)
inactive: [7] 102 % of control | [8] 98 % of control | [10] 99 % of control

CN1C(=O)C(C)(C)C(=O)C1(C)C
inactive: dose: 12.5 mg/kg/injection, schedule: Q01DX001 (ip), vehicle: saline 100 % of control | dose: 25.0 mg/kg/injection, schedule: Q01DX001 (ip), vehicle: saline 100 % of control | dose: 50.0 mg/kg/injection, schedule: Q01DX001 (ip), vehicle: saline 100 % of control

C=CCSc1nc(N)nc2c1ncn2C1CC(O)C(CO)O1 (stereo not drawn)
inactive: [14] 102 % of control | [15] 114 % of control and 111 % of control | [16] 123 % of control and 95 % of control | dose: 100.0 mg/kg/injection, schedule: Q04DX003 (ip), vehicle: saline 104 % of control | dose: 200.0 mg/kg/injection, schedule: Q04DX003 (ip), vehicle: saline 122 % of control and 94 % of control and 100 % of control | [18] 107 % of control | dose: 400.0 mg/kg/injection, schedule: Q04DX003 (ip), vehicle: saline 99 % of control and 104 % of control
active: [10] 181 % of control | dose: 300.0 mg/kg/injection, schedule: Q01DX009 (ip), vehicle: saline with Tween-80 154 % of control

OCC(O)C(O)C(O)C(O)CO (stereo not drawn)
inactive: dose: 100.0 mg/kg/injection, schedule: Q01DX010 (ip), vehicle: carboxymethylcellulose (CMC) 100 % of control | dose: 100.0 mg/kg/injection, schedule: Q01DX010 (ip), vehicle: saline 95 % of control | dose: 400.0 mg/kg/injection, schedule: Q01DX010 (ip), vehicle: carboxymethylcellulose (CMC) 100 % of control | dose: 400.0 mg/kg/injection, schedule: Q01DX010 (ip), vehicle: saline 105 % of control and 110 % of control

CCOC(=O)C(=O)NNc1cccc(Cl)n1
inactive: dose: 100.0 mg/kg/injection, schedule: Q01DX001 (ip), vehicle: saline with Tween-80 94 % of control | dose: 200.0 mg/kg/injection, schedule: Q01DX001 (ip), vehicle: saline with Tween-80 86 % of control | dose: 400.0 mg/kg/injection, schedule: Q01DX001 (ip), vehicle: saline with Tween-80 112 % of control
